Experimental data taken from PubChem BioAssay (NCI).
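A five-concentration, 48-hour dose response in 96-well plates underlies each endpoint, interpolated linearly between surrounding concentrations. Here, GI50 denotes the concentration required for 50% inhibition of growth. TGI: total growth inhibition.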

What was measured:
Assay in all cases: growth of human tumour cells (NCI), 48 h
[1] = system: 786-0 renal
[2] = system: A498 renal
[3] = system: A549 NSCLC
[4] = system: ACHN renal
[5] = system: BT-549 breast
[6] = system: CAKI-1 renal
[7] = system: CCRF-CEM leukemia
[8] = system: COLO 205 colon
[9] = system: DU-145 prostate
[10] = system: HCC-2998 colon
[11] = system: HCT-116 colon
[12] = system: HCT-15 colon
[13] = system: HL-60(TB) leukemia
[14] = system: HOP-62 NSCLC
[15] = system: HOP-92 NSCLC
[16] = system: HS 578T breast
[17] = system: HT29 colon
[18] = system: IGROV1 ovarian
[19] = system: K-562 leukemia
[20] = system: KM12 colon
[21] = system: LOX IMVI melanoma
[22] = system: M14 melanoma
[23] = system: MALME-3M melanoma
[24] = system: MCF7 breast
[25] = system: MDA-MB-231 breast
[26] = system: MDA-MB-435
[27] = system: MOLT-4 leukemia
[28] = system: NCI-H226 lung
[29] = system: NCI-H23 lung
[30] = system: NCI-H460 lung
[31] = system: NCI-H522 lung
[32] = system: NCI/ADR-RES ovarian
[33] = system: OVCAR-3 ovarian
[34] = system: OVCAR-4 ovarian
[35] = system: OVCAR-5 ovarian
[36] = system: OVCAR-8 ovarian
[37] = system: PC-3 prostate
[38] = system: RPMI-8226 leukemia
[39] = system: RXF 393 renal
[40] = system: SF-268 CNS
[41] = system: SF-295 CNS
[42] = system: SF-539 CNS
[43] = system: SK-MEL-2 melanoma
[44] = system: SK-MEL-28 melanoma
[45] = system: SK-MEL-5 melanoma
[46] = system: SK-OV-3 ovarian
[47] = system: SN12C renal
[48] = system: SNB-19 CNS
[49] = system: SNB-75 CNS
[50] = system: SR leukemia
[51] = system: SW-620 colon
[52] = system: T-47D breast
[53] = system: TK-10 renal
[54] = system: U251 CNS
[55] = system: UACC-257 melanoma
[56] = system: UACC-62 melanoma
[57] = system: UO-31 renal
[58] = system: EKVX NSCLC

## CC[C@]1(O)C[C@@H]2CN(Cc3c([nH]c4ccccc34)[C@@](C(=O)OC)(c3cc4c(cc3OC)N(C)[C@H]3[C@@](O)(C(=O)OC)[C@H](OC(C)=O)[C@]5(CC)[C@@H]6C[C@@H]6CN6CC[C@]43[C@@H]65)C2)C1
[1]
  GI50: 0.713 µM
  TGI: > 4.38 µM
[2]
  GI50: 0.163 µM
  TGI: > 2.85 µM
[3]
  GI50: 0.234 µM
  TGI: > 4.38 µM
[4]
  GI50: 3.38 µM
  TGI: > 4.38 µM
[5]
  GI50: 0.365 µM
  TGI: > 4.38 µM
[6]
  GI50: > 4.38 µM
  TGI: > 4.38 µM
[7]
  GI50: 0.0369 µM
  TGI: > 4.38 µM
[8]
  GI50: 0.0298 µM
  TGI: 0.252 µM
[9]
  GI50: 0.0433 µM
  TGI: > 4.38 µM
[10]
  GI50: 0.116 µM
  TGI: > 4.38 µM
[11]
  GI50: 0.0351 µM
  TGI: > 4.38 µM
[12]
  GI50: 2.78 µM
  TGI: > 4.38 µM
[13]
  GI50: 0.0159 µM
  TGI: > 4.38 µM
[14]
  GI50: 0.153 µM
  TGI: > 4.38 µM
[15]
  GI50: 0.0314 µM
  TGI: > 4.38 µM
[16]
  GI50: 0.0858 µM
  TGI: > 1.33 µM
[17]
  GI50: 0.0311 µM
  TGI: > 4.38 µM
[18]
  GI50: 0.452 µM
  TGI: > 4.38 µM
[19]
  GI50: 0.0279 µM
  TGI: > 4.38 µM
[20]
  GI50: 0.0408 µM
  TGI: > 4.38 µM
[21]
  GI50: 0.0304 µM
  TGI: > 4.38 µM
[22]
  GI50: 0.135 µM
  TGI: > 2.93 µM
[23]
  GI50: 2.6 µM
  TGI: > 4.38 µM
[24]
  GI50: 0.0181 µM
  TGI: > 4.38 µM
[25]
  GI50: 0.0761 µM
  TGI: > 2.61 µM
[26]
  GI50: 0.00612 µM
  TGI: 0.0235 µM
[27]
  GI50: 0.0484 µM
  TGI: > 4.38 µM
[28]
  GI50: > 1.44 µM
  TGI: > 4.38 µM
[29]
  GI50: 0.195 µM
  TGI: > 4.38 µM
[30]
  GI50: 0.109 µM
  TGI: > 4.38 µM
[31]
  GI50: 0.0105 µM
  TGI: 0.0947 µM
[32]
  GI50: > 4.38 µM
  TGI: > 4.38 µM
[33]
  GI50: 0.0162 µM
[34]
  GI50: 0.666 µM
  TGI: > 4.38 µM
[35]
  GI50: 0.144 µM
  TGI: > 4.38 µM
[36]
  GI50: 0.318 µM
  TGI: > 4.38 µM
[37]
  GI50: 0.0829 µM
  TGI: > 4.38 µM
[38]
  GI50: 0.0372 µM
  TGI: > 4.38 µM
[39]
  GI50: 0.111 µM
  TGI: > 4.38 µM
[40]
  GI50: 0.148 µM
  TGI: > 4.38 µM
[41]
  GI50: 0.137 µM
  TGI: > 4.38 µM
[42]
  GI50: 0.0363 µM
[43]
  GI50: 0.033 µM
  TGI: > 4.38 µM
[44]
  GI50: 0.0822 µM
  TGI: > 4.38 µM
[45]
  GI50: 0.119 µM
  TGI: 1.85 µM
[46]
  GI50: 0.0841 µM
  TGI: > 4.38 µM
[47]
  GI50: 0.232 µM
  TGI: > 4.38 µM
[48]
  GI50: 0.106 µM
  TGI: > 4.38 µM
[49]
  GI50: 0.0393 µM
  TGI: > 4.38 µM
[50]
  GI50: 0.0174 µM
  TGI: > 4.38 µM
[51]
  GI50: 0.0701 µM
  TGI: > 4.38 µM
[52]
  GI50: 0.0562 µM
  TGI: > 4.38 µM
[53]
  GI50: > 3.69 µM
  TGI: > 4.38 µM
[54]
  GI50: 0.112 µM
  TGI: > 4.38 µM
[55]
  GI50: > 4.38 µM
  TGI: > 4.38 µM
[56]
  GI50: 0.0578 µM
  TGI: > 4.38 µM
[57]
  GI50: > 3.59 µM
  TGI: > 4.38 µM

## COc1ccccc1/C=C1\COc2ccc(O)c(O)c2C1=O
[1]
  GI50: 2.2 µM
  TGI: 6.72 µM
[2]
  GI50: 3.4 µM
  TGI: 18 µM
[3]
  GI50: 2.95 µM
  TGI: > 100 µM
[4]
  GI50: 1.31 µM
  TGI: 2.64 µM
[5]
  GI50: 2.48 µM
  TGI: 7.53 µM
[6]
  GI50: 1.48 µM
  TGI: 4.15 µM
[7]
  GI50: 0.286 µM
  TGI: 2.11 µM
[8]
  GI50: 3.14 µM
  TGI: 8.98 µM
[9]
  GI50: 2.32 µM
  TGI: > 100 µM
[58]
  GI50: 3 µM
  TGI: 46.1 µM
[10]
  GI50: 1.76 µM
  TGI: 3.25 µM
[11]
  GI50: 1.61 µM
  TGI: 3.99 µM
[12]
  GI50: 0.823 µM
  TGI: 4.54 µM
[13]
  GI50: 0.407 µM
  TGI: 4.49 µM
[14]
  GI50: 3.1 µM
  TGI: 9.54 µM
[15]
  GI50: 2.98 µM
  TGI: 20.8 µM
[16]
  GI50: 3.6 µM
  TGI: > 100 µM
[17]
  GI50: 2.77 µM
  TGI: 7.78 µM
[18]
  GI50: 1.46 µM
  TGI: 4.21 µM
[19]
  GI50: 0.671 µM
  TGI: 14.1 µM
[20]
  GI50: 1.73 µM
  TGI: 3.89 µM
[21]
  GI50: 1.26 µM
  TGI: 2.66 µM
[22]
  GI50: 2.19 µM
  TGI: 8.38 µM
[23]
  GI50: 1.38 µM
  TGI: 3.72 µM
[24]
  GI50: 0.36 µM
  TGI: > 100 µM
[25]
  GI50: 2.24 µM
  TGI: 10.2 µM
[26]
  GI50: 1.57 µM
  TGI: 4.96 µM
[27]
  GI50: 1.79 µM
  TGI: 19.1 µM
[28]
  GI50: 1.9 µM
  TGI: 5.08 µM
[29]
  GI50: 2.04 µM
  TGI: 6.11 µM
[30]
  GI50: 1.83 µM
  TGI: 4.09 µM
[31]
  GI50: 0.214 µM
  TGI: 0.656 µM
[32]
  GI50: 1.88 µM
  TGI: 6.64 µM
[33]
  GI50: 0.834 µM
  TGI: 6.68 µM
[34]
  GI50: 1.86 µM
  TGI: 9.55 µM
[35]
  GI50: 2.33 µM
  TGI: 5.48 µM
[36]
  GI50: 2.38 µM
  TGI: > 100 µM
[37]
  GI50: 1.43 µM
  TGI: 11.3 µM
[38]
  GI50: 0.235 µM
  TGI: 0.693 µM
[39]
  GI50: 1.51 µM
  TGI: 2.97 µM
[40]
  GI50: 2.22 µM
  TGI: 8.42 µM
[41]
  GI50: 4.49 µM
  TGI: > 100 µM
[42]
  GI50: 1.52 µM
  TGI: 3.35 µM
[43]
  GI50: 2.72 µM
  TGI: 8.67 µM
[44]
  GI50: 1.91 µM
  TGI: 4.44 µM
[45]
  GI50: 1.56 µM
  TGI: 3.18 µM
[46]
  GI50: 4.68 µM
  TGI: > 100 µM
[47]
  GI50: 1.48 µM
  TGI: 5.31 µM
[48]
  GI50: 2.61 µM
  TGI: 26.2 µM
[50]
  GI50: 0.407 µM
  TGI: 11.9 µM
[51]
  GI50: 1.48 µM
  TGI: 4.2 µM
[52]
  GI50: 2.47 µM
  TGI: > 100 µM
[53]
  GI50: 3.08 µM
  TGI: > 100 µM
[54]
  GI50: 1.57 µM
  TGI: 3.99 µM
[56]
  GI50: 1.59 µM
  TGI: 3.29 µM
[57]
  GI50: 1.04 µM
  TGI: 2.24 µM
